Measurements reported in patent US8232313B2 (Georgia Health Sciences University, priority 2003, dated 2012).
Entries after “also recorded” stand apart in the source; their conditions may differ. Blank lines part the entries; values can stand above or below the compound they belong to.

Legend:
[1] = Comparative plasma pharmacokinetics of the stereoisomers of 1-MT; assay type: in vivo, mice; conditions: for time to peak plasma concentrations: after PO administration, 50 mg/kg
Method: Comparative pharmacokinetic studies were initiated to characterize the in vivo disposition of the stereoisomers of 1-MT when administered by different routes, to determine the oral bioavailability, and to define the plasma concentrations associated with effective dosing regimens. Studies were conducted in conventional mice after IV, PO and SC doses of 50 mg/kg, and IP doses of 25 mg/kg, 50 mg/kg, and 100 mg/kg. In addition, plasma concentrations of 1-MT were determined in nude mice with implanted timed-release pellets designed to release the DL isomer for 7 days, and the D isomer for 14 days.

[2] = molecular target: IDO (Mus musculus, UniProt P28776); assay: MLR with sorted tumor-draining LN cells (pDCs) as stimulators and BM3 responder T cells; conditions: 250 uM
Method: T cell activation in MLR. BM3 responder T cells were prepared from spleen by nylon-wool enrichment. Stimulators (sorted DCs or unfractionated TDLN) were mixed with 1×10^5 BM3 responder cells in 200 ul IMDM at the ratios shown in each figure. After 3 days, proliferation was measured by 4-hour thymidine incorporation assay.
MLRs were thus “two-way” reactions. However, the small number of sorted DCs used as stimulators contributed negligible proliferation compared to the large population of TCR-transgenic responder cells. Since the relevant readout was dominant suppression, the two-way MLR design presented no problem in interpretation.
Pooled draining LN cells (4 nodes) were stained and fractionated by 4-color MoFlo cell sorting for the two populations shown in the schematic of FIG. 5B. All other cells were collected in a third fraction. Each fraction was then used as stimulators in MLRs, using 50,000 BM3 T cells as responders. The number of stimulators used in each MLR was adjusted to be the same as would have been present in 50,000 cells of the original LN preparation, based on the measured percentage of each sorted fraction. Thus, 500 cells of the sorted B220^+ CD11c^+ fraction were added per well, and 1500 cells of the CD25^+ CD4^+ fraction, while 48,000 cells of the “all other” fraction were used.

[3] = molecular target: indoleamine 2,3-dioxygenase (IDO) (Homo sapiens, UniProt P14902); assay: Allogeneic mixed-leukocyte reaction (MLR) with IDO-expressing human DCs, T cell proliferation by thymidine incorporation; conditions: 250 uM in culture medium
Method: After five days, proliferation was measured by four hour thymidine incorporation assay. “V”-bottom culture wells (Nunc) were used in MLR assays to maximize cell-cell contact.
DCs were used as stimulators in allogeneic mixed-leukocyte reactions (MLRs), with allogeneic lymphocytes as responder cells.

[4] = Pilot tissue biodistribution of D and L isomers after DL racemic infusion; assay type: in vivo, Mice; conditions: DL racemic 10 mg/day, 72 hour infusion
Text: The results noted with spleen are particularly relevant because it is a lymphoid organ, and thus likely to be similar to tumor-draining lymph nodes.

[5] = system: B16F10 melanomas; assay: Established B16F10 melanoma in mice, 1MT with radiation or cyclophosphamide; assay type: in vivo, mouse
Method: FIGS. 11A-11D. Administration of 1-MT enhances immune-mediated host anti-tumor effect when administered with radiation or cyclophosphamide. Mice were injected subcutaneously (SQ) with 4×10^4 B16F10 cells. […] Control mice received vehicle pellets without drug.
Not unexpected, given that the tumor had already been allowed to create tolerance in the host.

[6] = system: IDO; assay: Recall MLR of LN cells from recipients of TDLN DCs, 1MT added to the MLR; conditions: responders from recipients of TDLN DCs
Method: Inguinal LN cells from recipient mice were assayed for functional responsiveness using MLRs stimulated by irradiated C57BL/6 (H-2K^b-positive) splenocytes.

[7] = system: Lewis Lung carcinoma (LLC); conditions: administration of 1-MT; cited from earlier work

Chain of IDO (Mus musculus, UniProt P28776) (P28776 whole entry): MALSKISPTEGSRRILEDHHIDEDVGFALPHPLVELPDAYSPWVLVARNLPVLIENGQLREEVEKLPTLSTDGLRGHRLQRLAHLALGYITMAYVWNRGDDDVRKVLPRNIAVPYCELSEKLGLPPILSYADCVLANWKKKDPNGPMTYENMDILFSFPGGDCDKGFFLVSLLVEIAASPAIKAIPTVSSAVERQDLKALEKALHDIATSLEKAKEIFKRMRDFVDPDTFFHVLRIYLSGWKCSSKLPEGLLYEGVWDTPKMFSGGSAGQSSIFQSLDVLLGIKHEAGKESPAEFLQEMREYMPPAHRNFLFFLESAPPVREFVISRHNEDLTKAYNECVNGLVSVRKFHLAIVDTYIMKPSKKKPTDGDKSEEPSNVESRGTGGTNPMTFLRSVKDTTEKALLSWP
Chain of indoleamine 2,3-dioxygenase (IDO) (P14902 whole entry, the tested form may be a part): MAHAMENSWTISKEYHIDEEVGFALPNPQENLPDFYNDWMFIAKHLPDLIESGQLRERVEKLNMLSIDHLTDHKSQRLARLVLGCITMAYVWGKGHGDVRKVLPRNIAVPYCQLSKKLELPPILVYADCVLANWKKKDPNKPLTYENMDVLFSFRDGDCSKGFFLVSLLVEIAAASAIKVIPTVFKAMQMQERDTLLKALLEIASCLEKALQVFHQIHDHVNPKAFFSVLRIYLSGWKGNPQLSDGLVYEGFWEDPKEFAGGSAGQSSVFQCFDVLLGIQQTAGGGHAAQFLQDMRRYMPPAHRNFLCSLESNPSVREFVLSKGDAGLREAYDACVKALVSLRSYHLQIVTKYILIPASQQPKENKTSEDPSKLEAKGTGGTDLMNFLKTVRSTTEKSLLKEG

- time to peak plasma concentrations [1]: 2 h
SMILES: Cn1cc(C[C@H](N)C(=O)O)c2ccccc21 [L 1-MT, reference compound]

- effect of 10x L-tryptophan with pDCs from IDO-knockout hosts ([2]; IDO-KO): no effect
- DC-mediated inhibition of T cell proliferation on addition of supra-physiologic tryptophan [3]: completely reversed
SMILES: N[C@@H](Cc1c[nH]c2ccccc12)C(=O)O [L-tryptophan]
- suppression by pDCs with excess L-tryptophan ([2]; 10x): abrogated; also recorded: abrogates suppression

- time to peak plasma concentrations [1]: 2 h
- apparent volume of distribution ([1]; relative to L isomer): relatively greater
- distribution into muscle, D and L isomers [4]: equivalent distribution
- distribution into spleen, D and L isomers [4]: equivalent distribution
- level in brain, D versus L isomer [4]: lower levels
- level in plasma, D versus L isomer [4]: lower levels
SMILES: Cn1cc(C[C@@H](N)C(=O)O)c2ccccc21 [1-methyl-D-tryptophan]
- accumulation in liver, D versus L isomer ([4]; SQ pellets, initial results): at least equal, and possibly preferential, accumulation
- effect of combination with radiation versus radiation alone, replicated studies ([5]; replicate of FIG. 11A design): enhanced effect over radiation alone

SMILES: Cn1cc(C[C@H](N)C(=O)O)c2ccccc21 (racemic) [1MT, 1-methyl-tryptophan]
- effect of 1MT on suppression in recall MLRs [6]: no effect; also recorded: not restored
- tumor outgrowth [7]: significantly delayed
- tumor growth, 1MT with total-body radiation ([5]; DL racemic 20 mg/day plus 500 cGy single dose): significantly reduce tumor growth
- tumor growth, 1MT with cyclophosphamide ([5]; DL racemic 20 mg/day plus cyclophosphamide 150 mg/kg x 1 dose): significantly reduce tumor growth
- effect of 1MT alone on established tumor ([5]; DL racemic form, 20 mg per mouse per day, SQ pellets, from day 7): no effect
- effect of 1MT over cyclophosphamide alone in RAG1-knockout hosts ([5]; immunodeficient (RAG1-knockout) hosts): no enhancing effect
- effect of 1MT alone, replicated radiation studies ([5]; replicate of FIG. 11A design): no effect
